± gives the expanded uncertainty stated by the source.
Tests used:
[1] = excess molar enthalpy (molar enthalpy of mixing); xn = mol fraction of the nth substance listed; details: 298.15 K, 101 kPa, Liquid, isothermal titration calorimeter
[2] = 298.15 K; 101.33 kPa; Liquid; Vibrating tube method

CCCCCCC(C)=O [2-octanone] + CCCCCCCCO
[1]
Details | excess molar enthalpy [kJ/mol]
x2 = 0.015 | 0.091 ± 0.002
x2 = 0.03 | 0.178 ± 0.003
x2 = 0.045 | 0.259 ± 0.004
x2 = 0.059 | 0.332 ± 0.005
x2 = 0.072 | 0.402 ± 0.005
x2 = 0.085 | 0.466 ± 0.006
x2 = 0.098 | 0.526 ± 0.007
x2 = 0.111 | 0.582 ± 0.008
x2 = 0.124 | 0.638 ± 0.008
x2 = 0.137 | 0.691 ± 0.009
x2 = 0.15 | 0.74 ± 0.01
x2 = 0.162 | 0.785 ± 0.01
x2 = 0.174 | 0.826 ± 0.011
x2 = 0.186 | 0.864 ± 0.011
x2 = 0.197 | 0.9 ± 0.011
x2 = 0.206 | 0.955 ± 0.012
x2 = 0.212 | 0.973 ± 0.012
x2 = 0.218 | 0.991 ± 0.013
x2 = 0.225 | 1.01 ± 0.013
x2 = 0.232 | 1.03 ± 0.013
x2 = 0.24 | 1.05 ± 0.013
x2 = 0.248 | 1.07 ± 0.014
x2 = 0.256 | 1.09 ± 0.014
x2 = 0.266 | 1.11 ± 0.014
x2 = 0.276 | 1.14 ± 0.014
x2 = 0.283 | 1.15 ± 0.015
x2 = 0.291 | 1.17 ± 0.015
x2 = 0.299 | 1.18 ± 0.015
x2 = 0.308 | 1.2 ± 0.015
x2 = 0.317 | 1.21 ± 0.015
x2 = 0.327 | 1.23 ± 0.015
x2 = 0.337 | 1.25 ± 0.016
x2 = 0.348 | 1.26 ± 0.016
x2 = 0.36 | 1.27 ± 0.016
x2 = 0.373 | 1.29 ± 0.016
x2 = 0.383 | 1.3 ± 0.016
x2 = 0.393 | 1.31 ± 0.016
x2 = 0.404 | 1.32 ± 0.017
x2 = 0.415 | 1.32 ± 0.017
x2 = 0.428 | 1.33 ± 0.017
x2 = 0.44 | 1.34 ± 0.017
x2 = 0.454 | 1.34 ± 0.017
x2 = 0.469 | 1.35 ± 0.017
x2 = 0.484 | 1.35 ± 0.017
x2 = 0.496 | 1.34 ± 0.017
x2 = 0.509 | 1.34 ± 0.017
x2 = 0.523 | 1.34 ± 0.017
x2 = 0.537 | 1.33 ± 0.017
x2 = 0.552 | 1.32 ± 0.017
x2 = 0.567 | 1.31 ± 0.016
x2 = 0.587 | 1.3 ± 0.016
x2 = 0.602 | 1.28 ± 0.016
x2 = 0.62 | 1.26 ± 0.016
x2 = 0.64 | 1.23 ± 0.015
x2 = 0.657 | 1.2 ± 0.015
x2 = 0.674 | 1.17 ± 0.015
x2 = 0.692 | 1.14 ± 0.014
x2 = 0.711 | 1.1 ± 0.014
x2 = 0.731 | 1.05 ± 0.013
x2 = 0.752 | 1 ± 0.013
x2 = 0.775 | 0.945 ± 0.012
x2 = 0.799 | 0.875 ± 0.011
x2 = 0.82 | 0.81 ± 0.01
x2 = 0.841 | 0.736 ± 0.009
x2 = 0.864 | 0.652 ± 0.008
x2 = 0.888 | 0.557 ± 0.007
x2 = 0.914 | 0.446 ± 0.006
x2 = 0.941 | 0.319 ± 0.005
x2 = 0.97 | 0.172 ± 0.003

CCCCCCCC(=O)O [octanoic acid] + CCCCCCO
[1]
Details | excess molar enthalpy [kJ/mol]
x2 = 0.038 | 0.156 ± 0.003
x2 = 0.074 | 0.272 ± 0.004
x2 = 0.106 | 0.363 ± 0.005
x2 = 0.137 | 0.438 ± 0.006
x2 = 0.167 | 0.501 ± 0.007
x2 = 0.18 | 0.552 ± 0.007
x2 = 0.186 | 0.564 ± 0.007
x2 = 0.193 | 0.576 ± 0.008
x2 = 0.201 | 0.589 ± 0.008
x2 = 0.209 | 0.602 ± 0.008
x2 = 0.218 | 0.616 ± 0.008
x2 = 0.228 | 0.63 ± 0.008
x2 = 0.239 | 0.643 ± 0.008
x2 = 0.251 | 0.656 ± 0.008
x2 = 0.261 | 0.668 ± 0.009
x2 = 0.273 | 0.679 ± 0.009
x2 = 0.286 | 0.689 ± 0.009
x2 = 0.3 | 0.699 ± 0.009
x2 = 0.31 | 0.706 ± 0.009
x2 = 0.322 | 0.713 ± 0.009
x2 = 0.334 | 0.72 ± 0.009
x2 = 0.347 | 0.725 ± 0.009
x2 = 0.361 | 0.73 ± 0.009
x2 = 0.377 | 0.733 ± 0.009
x2 = 0.394 | 0.736 ± 0.009
x2 = 0.407 | 0.735 ± 0.009
x2 = 0.422 | 0.734 ± 0.009
x2 = 0.437 | 0.732 ± 0.009
x2 = 0.454 | 0.728 ± 0.009
x2 = 0.472 | 0.722 ± 0.009
x2 = 0.492 | 0.714 ± 0.009
x2 = 0.508 | 0.705 ± 0.009
x2 = 0.526 | 0.694 ± 0.009
x2 = 0.544 | 0.68 ± 0.009
x2 = 0.564 | 0.663 ± 0.009
x2 = 0.586 | 0.643 ± 0.008
x2 = 0.607 | 0.621 ± 0.008
x2 = 0.629 | 0.599 ± 0.008
x2 = 0.65 | 0.574 ± 0.007
x2 = 0.672 | 0.545 ± 0.007
x2 = 0.696 | 0.514 ± 0.007
x2 = 0.722 | 0.477 ± 0.006
x2 = 0.749 | 0.44 ± 0.006
x2 = 0.773 | 0.404 ± 0.005
x2 = 0.798 | 0.365 ± 0.005
x2 = 0.825 | 0.32 ± 0.004
x2 = 0.853 | 0.27 ± 0.004
x2 = 0.884 | 0.221 ± 0.003
x2 = 0.91 | 0.171 ± 0.003
x2 = 0.938 | 0.118 ± 0.002
x2 = 0.968 | 0.061 ± 0.001

CCCCCCCC(=O)O [octanoic acid]
Details | mass density [kg/m3]
[2] | 906.02 ± 0.73

CCCCCC(=O)O [hexanoic acid] + CCCCCCO
[1]
Details | excess molar enthalpy [kJ/mol]
x2 = 0.025 | 0.097 ± 0.002
x2 = 0.048 | 0.177 ± 0.003
x2 = 0.07 | 0.245 ± 0.004
x2 = 0.091 | 0.302 ± 0.004
x2 = 0.112 | 0.352 ± 0.005
x2 = 0.131 | 0.394 ± 0.005
x2 = 0.154 | 0.442 ± 0.006
x2 = 0.176 | 0.482 ± 0.006
x2 = 0.198 | 0.514 ± 0.007
x2 = 0.218 | 0.54 ± 0.007
x2 = 0.238 | 0.562 ± 0.007
x2 = 0.256 | 0.58 ± 0.008
x2 = 0.268 | 0.598 ± 0.008
x2 = 0.277 | 0.606 ± 0.008
x2 = 0.287 | 0.614 ± 0.008
x2 = 0.298 | 0.622 ± 0.008
x2 = 0.309 | 0.629 ± 0.008
x2 = 0.321 | 0.635 ± 0.008
x2 = 0.335 | 0.641 ± 0.008
x2 = 0.349 | 0.647 ± 0.008
x2 = 0.365 | 0.652 ± 0.008
x2 = 0.377 | 0.653 ± 0.008
x2 = 0.39 | 0.653 ± 0.008
x2 = 0.404 | 0.654 ± 0.008
x2 = 0.419 | 0.653 ± 0.008
x2 = 0.435 | 0.651 ± 0.008
x2 = 0.452 | 0.647 ± 0.008
x2 = 0.47 | 0.641 ± 0.008
x2 = 0.491 | 0.631 ± 0.008
x2 = 0.506 | 0.624 ± 0.008
x2 = 0.523 | 0.614 ± 0.008
x2 = 0.54 | 0.602 ± 0.008
x2 = 0.559 | 0.588 ± 0.008
x2 = 0.579 | 0.572 ± 0.007
x2 = 0.601 | 0.553 ± 0.007
x2 = 0.624 | 0.53 ± 0.007
x2 = 0.649 | 0.505 ± 0.007
x2 = 0.669 | 0.482 ± 0.006
x2 = 0.691 | 0.458 ± 0.006
x2 = 0.714 | 0.431 ± 0.006
x2 = 0.738 | 0.4 ± 0.005
x2 = 0.765 | 0.365 ± 0.005
x2 = 0.793 | 0.328 ± 0.005
x2 = 0.817 | 0.293 ± 0.004
x2 = 0.843 | 0.255 ± 0.004
x2 = 0.87 | 0.214 ± 0.003
x2 = 0.899 | 0.169 ± 0.003
x2 = 0.931 | 0.114 ± 0.002
x2 = 0.964 | 0.059 ± 0.001

CCCCCC(=O)O [hexanoic acid]
Details | mass density [kg/m3]
[2] | 922.06 ± 0.75

CN(C)C=O [dimethylformamide]
Details | mass density [kg/m3]
[2] | 944.34 ± 0.24

— the NIST ThermoML archive (doi:10.1016/j.jct.2011.07.018)
